≈ marks a conversion by molar mass, not a printed value. Read-outs that look alike come from different tables or passages of the source. Each block holds one compound with its values, some of them ahead of it. Peptide text beside a SMILES is read from it.
Key:
S. epidermidis = format: cell-based
Experimental: (§1) In certain embodiments the MIC assays are performed as described herein in the Examples. For each organism, the media and growth conditions utilized is detailed in Table 8.
(§2) In certain embodiments the MIC assays are performed as follows: For each organism, the media and growth conditions utilized is detailed in Table 8.

Candida albicans = assay: Binding of targeting peptides to Candida albicans; details: tested at 3.13, 6.25, 12.5 and 25.0 μM in 1× PBS or HEPES/NaCl/MgCl2/0.1% CTAB
Experimental: The peptides in Table 6 were tested for binding efficiency at 3.13, 6.25, 12.5 and 25.0 μM concentrations in 1× phosphate-buffered saline or 20 mM HEPES (4-(2-hydroxyethyl)-1-piperazineethanesulfonic acid), 150 mM sodium chloride, 1 mM magnesium chloride and 0.1% CTAB.

MRSA = format: cell-based, Methicillin-resistant Staphylococcus aureus
Experimental: as §1, §2

B. subtilis = format: cell-based, Bacillus subtilis
Experimental: as §1, §2

A. niger = format: cell-based, Aspergillus niger
Experimental: as §1, §2

C. albicans = format: cell-based, Candida albicans
Experimental: as §1, §2

T. rubrum = format: cell-based, Trichophyton rubrum
Experimental: as §1, §2

S. pneumoniae = format: cell-based, Streptococcus pneumoniae
Experimental: as §1, §2

Compound: CSCC[C@H](NC(=O)[C@H](CCCNC(=N)N)NC(=O)[C@H](CCCNC(=N)N)NC(=O)[C@H](CC(C)C)NC(=O)[C@H](CCCNC(=N)N)NC(=O)[C@H](CCC(=O)O)NC(=O)[C@@H](NC(=O)[C@H](CS)NC(=O)CNC(=O)[C@H](CCCNC(=N)N)NC(=O)[C@@H](N)CCCNC(=N)N)[C@@H](C)O)C(=O)N[C@@H](C)C(=O)N[C@@H](CCCNC(=N)N)C(=O)N[C@@H](CCCNC(=N)N)C(=O)N[C@@H](CC(N)=O)C(=O)N[C@@H](C)C(=O)N[C@@H](Cc1c[nH]c2ccccc12)C(=O)N[C@@H](CC(=O)O)C(=O)N[C@@H](CC(C)C)C(=O)N[C@@H](Cc1ccc(O)cc1)C(=O)N[C@@H](C)C(=O)N[C@@H](CCC(=O)O)C(=O)N[C@@H](Cc1c[nH]cn1)C(=O)N[C@@H](Cc1ccccc1)C(=O)N[C@@H](Cc1ccc(O)cc1)C(=O)O [PF-148] (H-RRGCTERLRRMARRNAWDLYAEHFY-OH; N-terminus and C-terminus assumed)
MIC (B. subtilis): 50 µM (≈ 161 µg/mL)
MIC (A. niger): 50 µM (≈ 161 µg/mL)

Compound: RESKLIAMADMIRRRI [PF-545]
MIC (B. subtilis; B. subtilis, BHI, 30° C., aerobic, inoculum 10^5 CFU/ml, 18-24 h or 48 h): 25 µM
MIC (A. niger; A. niger, Potato Dextrose Agar, 25° C., aerobic, inoculum 10^5 CFU/ml, 18-24 h or 48 h): 50 µM
MIC (MRSA; MRSA, BHI supplemented with 2% glucose, 37° C., aerobic, inoculum 10^5 CFU/ml, 18-24 h or 48 h): 50 µM

Compound: CC[C@H](C)[C@H](NC(=O)[C@H](C)NC(=O)[C@@H]1CCCN1C(=O)[C@H](Cc1ccccc1)NC(=O)[C@@H]1CCCN1C(=O)[C@H](CC(C)C)NC(=O)[C@@H](N)C(C)C)C(=O)N1CCC[C@H]1C(=O)N[C@@H](CC(C)C)C(=O)N[C@@H](CO)C(=O)N[C@@H](CCCNC(=N)N)C(=O)N[C@@H](CCCNC(=N)N)C(=O)N[C@@H](CCCNC(=N)N)C(=O)N[C@@H](C)C(=O)N[C@@H](CS)C(=O)N[C@H](C(=O)N[C@@H](C)C(=O)N[C@@H](C)C(=O)N1CCC[C@H]1C(=O)N[C@@H](CCCNC(=N)N)C(=O)N1CCC[C@H]1C(=O)N[C@@H](CCCNC(=N)N)C(=O)N[C@@H](CO)C(=O)N[C@@H](CCCNC(=N)N)C(=O)N[C@@H](CCC(N)=O)C(=O)N[C@@H](CCCNC(=N)N)C(=O)N[C@@H](C)C(=O)N[C@@H](CO)C(=O)O)C(C)C [PF-168] (H-VLPFPAIPLSRRRACVAAPRPRSRQRAS-OH; N-terminus and C-terminus assumed)
MIC (T. rubrum): 50 µM (≈ 156 µg/mL)
Target(s): form of Candida albicans bound (Candida albicans): yeast cells
MIC (A. niger): 50 µM (≈ 156 µg/mL)
MIC (MRSA): 50 µM (≈ 156 µg/mL)

Compound: CC(C)[C@H](NC(=O)[C@H](C)NC(=O)[C@H](Cc1ccc(O)cc1)NC(=O)[C@@H](N)CC(N)=O)C(=O)N[C@H](C(=O)N[C@@H](CO)C(=O)N[C@@H](Cc1c[nH]cn1)C(=O)N[C@H](C(=O)O)[C@@H](C)O)C(C)C [PF-209] (H-NYAVVSHT-OH; N-terminus and C-terminus assumed)
MIC (MRSA): 50 µM (≈ 44.5 µg/mL)

Continued, in another order:

MIC (S. epidermidis): 50 µM (≈ 152 µg/mL)
MIC (MRSA): 50 µM (≈ 152 µg/mL)
Compound: CC[C@H](C)[C@H](NC(=O)[C@H](CC(N)=O)NC(=O)[C@@H](NC(=O)[C@H](Cc1ccccc1)NC(=O)[C@H](CCC(=O)O)NC(=O)CNC(=O)[C@H](CCC(N)=O)NC(=O)[C@H](Cc1ccccc1)NC(=O)[C@@H](N)CCCCN)[C@@H](C)O)C(=O)NCC(=O)N[C@@H](CCC(N)=O)C(=O)N[C@@H](CO)C(=O)N[C@@H](Cc1ccc(O)cc1)C(=O)N[C@H](C(=O)N[C@H](C(=O)N[C@@H](CO)C(=O)N[C@@H](C)C(=O)N[C@@H](CO)C(=O)N[C@@H](Cc1c[nH]cn1)C(=O)N[C@@H](CCSC)C(=O)N[C@@H](CO)C(=O)N[C@H](C(=O)N[C@@H](CO)C(=O)N[C@@H](CC(C)C)C(=O)N[C@@H](CC(N)=O)C(=O)N[C@H](C(=O)NCC(=O)N[C@@H](CCCCN)C(=O)O)[C@@H](C)O)[C@@H](C)O)C(C)C)[C@@H](C)CC [PF-583] (H-KFQGEFTNIGQSYIVSASHMSTSLNTGK-OH; N-terminus and C-terminus assumed)
Target(s): form of Candida albicans bound (Candida albicans): hyphae

MIC (C. albicans): 50 µM (≈ 73.9 µg/mL)
Compound: CC(C)[C@H](NC(=O)[C@@H](N)Cc1ccc(O)cc1)C(=O)N[C@@H](CC(N)=O)C(=O)N[C@@H](Cc1ccc(O)cc1)C(=O)N[C@@H](CC(N)=O)C(=O)N[C@@H](CCC(N)=O)C(=O)N[C@@H](CO)C(=O)N[C@@H](Cc1ccccc1)C(=O)N[C@@H](CC(N)=O)C(=O)N[C@@H](CO)C(=O)NCC(=O)N[C@@H](Cc1c[nH]c2ccccc12)C(=O)O [PF-C220] (H-YVNYNQSFNSGW-OH; N-terminus and C-terminus assumed)

MIC (S. pneumoniae): 50 µM (≈ 112 µg/mL)
MIC (A. niger): 50 µM (≈ 112 µg/mL)
Compound: CC[C@H](C)[C@H](NC(=O)[C@H](CCC(N)=O)NC(=O)[C@H](CC(=O)O)NC(=O)[C@H](CO)NC(=O)[C@H](Cc1ccccc1)NC(=O)[C@@H](N)CCCCN)C(=O)N[C@@H](CC(=O)O)C(=O)N[C@@H](CCCCN)C(=O)NCC(=O)N[C@@H](CCC(N)=O)C(=O)N[C@@H](CC(=O)O)C(=O)N[C@@H](C)C(=O)N[C@@H](CC(C)C)C(=O)N[C@@H](CCCCN)C(=O)N[C@@H](CC(=O)O)C(=O)N[C@@H](CCCCN)C(=O)N[C@@H](CC(C)C)C(=O)NCC(=O)N[C@@H](CC(=O)O)C(=O)N[C@@H](CC(C)C)C(=O)O [PF-525] (H-KFSDQIDKGQDALKDKLGDL-OH; N-terminus and C-terminus assumed)

MIC (S. pneumoniae): 50 µM (≈ 85.9 µg/mL)
MIC (A. niger): 25 µM (≈ 43 µg/mL)
Compound: CC(C)C[C@H](NC(=O)[C@H](CCC(N)=O)NC(=O)[C@H](CO)NC(=O)[C@H](CCC(N)=O)NC(=O)[C@H](CC(C)C)NC(=O)[C@@H](N)CO)C(=O)NCC(=O)N1CCC[C@H]1C(=O)N[C@@H](CS)C(=O)N[C@@H](CC(C)C)C(=O)N[C@@H](Cc1c[nH]cn1)C(=O)N[C@@H](CC(=O)O)C(=O)N[C@@H](CCC(N)=O)C(=O)N[C@@H](CCCNC(=N)N)C(=O)N[C@@H](Cc1c[nH]cn1)C(=O)O [PF-448] (H-SLQSQLGPCLHDQRH-OH; N-terminus and C-terminus assumed)

MIC (T. rubrum): 50 µM (≈ 182 µg/mL)
MIC (S. epidermidis): 50 µM (≈ 182 µg/mL)
MIC (B. subtilis): 50 µM (≈ 182 µg/mL)
Compound: CC[C@H](C)[C@H](NC(=O)[C@H](CO)NC(=O)[C@H](CC(N)=O)NC(=O)[C@H](CCCNC(=N)N)NC(=O)[C@H](CC(N)=O)NC(=O)[C@H](CC(C)C)NC(=O)[C@H](CCCCN)NC(=O)[C@H](CCCCN)NC(=O)[C@H](CCCCN)NC(=O)[C@@H](NC(=O)[C@@H]1CCCN1C(=O)[C@H](CO)NC(=O)[C@H](CCCNC(=N)N)NC(=O)[C@@H](NC(=O)[C@H](CCCNC(=N)N)NC(=O)[C@@H](NC(=O)[C@@H](N)CCSC)[C@@H](C)CC)[C@@H](C)CC)[C@@H](C)O)C(=O)N[C@@H](CO)C(=O)N[C@@H](CC(=O)O)C(=O)N[C@@H](Cc1c[nH]c2ccccc12)C(=O)N[C@@H](CCCCN)C(=O)N[C@@H](CO)C(=O)N[C@@H](CC(N)=O)C(=O)N[C@H](C(=O)N[C@@H](CO)C(=O)NCC(=O)N[C@@H](CCCNC(=N)N)C(=O)N[C@@H](Cc1ccccc1)C(=O)N[C@@H](Cc1ccccc1)C(=O)N[C@@H](Cc1ccc(O)cc1)C(=O)O)[C@@H](C)O [PF-283] (H-MIRIRSPTKKKLNRNSISDWKSNTSGRFFY-OH; N-terminus and C-terminus assumed)

MIC (C. albicans): 50 µM (≈ 99.6 µg/mL)
Compound: CC[C@H](C)[C@H](N)C(=O)N[C@@H](CC(C)C)C(=O)N[C@H](C(=O)N[C@@H](CC(C)C)C(=O)N[C@@H](CC(C)C)C(=O)N[C@@H](C)C(=O)N[C@@H](CC(C)C)C(=O)N[C@@H](CCC(N)=O)C(=O)N[C@H](C(=O)N[C@@H](CCC(=O)O)C(=O)N[C@@H](CC(C)C)C(=O)N[C@@H](CC(=O)O)C(=O)N[C@@H](CO)C(=O)N[C@@H](CCCCN)C(=O)N[C@@H](Cc1ccccc1)C(=O)N[C@@H](CCC(N)=O)C(=O)N[C@@H](Cc1ccc(O)cc1)C(=O)O)C(C)C)C(C)C [PF-C157] (H-ILVLLALQVELDSKFQY-OH; N-terminus and C-terminus assumed)

— US20100184683A1, “ANTIBACTERIAL AND ANTIFUNGAL PEPTIDES” (C3 JIAN, INC., priority 2009, published 2010)
